Patent US11230526B1, “Cylcoalkenyl derivatives useful as agonists of the GPR120 and/or GPR40 receptors” (Janssen Pharmaceutica NV, priority 2018, dated 2022)

Tests used:
human GPR40 = biological target: T1, human GPR40 (Homo sapiens, UniProt O14842); test: GPR40 calcium flux assay, human GPR40; assay type: cell-based; conditions: HEK293 cells stably expressing GPR40; table does not say human or rat
T1 construct: expressed in transfected cells
Procedure, shortened: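 Cells preincubated 1 h at 37° C. in HBSS, 20 mM HEPES, 0.1% BSA, then Fluo 8 calcium dye 30 min at 37° C. and 15 min at room temperature.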

Human GPR120 short form = biological target: T2, Human GPR120 short form (Homo sapiens, UniProt Q5NUL3); test: Human GPR120 calcium flux assay, Procedure Calcium B (4200 cells/well); assay type: cell-based
T2 construct: expressed in transfected cells
T2 sequence (Q5NUL3 1-361): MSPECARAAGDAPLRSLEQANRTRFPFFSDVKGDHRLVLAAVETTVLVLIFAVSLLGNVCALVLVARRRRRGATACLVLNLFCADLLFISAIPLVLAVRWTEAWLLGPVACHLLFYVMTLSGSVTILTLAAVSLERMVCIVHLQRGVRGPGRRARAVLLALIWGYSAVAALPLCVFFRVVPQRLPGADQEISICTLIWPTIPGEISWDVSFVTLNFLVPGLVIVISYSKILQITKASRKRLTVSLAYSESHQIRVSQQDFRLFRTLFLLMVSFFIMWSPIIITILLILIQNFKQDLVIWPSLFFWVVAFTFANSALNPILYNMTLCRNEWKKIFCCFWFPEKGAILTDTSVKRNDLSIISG
Procedure, shortened: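 HEK293 cells stably expressing human GPR120 (NM_001195755.1), 4200 cells/well, starved 1 h and loaded with Fluo-4 NW plus probenecid. Ligand-evoked calcium flux read on FLIPR for 300 s after a 10 s baseline. RFU = Fmax−Fmin; EC50 from four-parameter concentration-response fit.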

T1 sequence (O14842 whole entry): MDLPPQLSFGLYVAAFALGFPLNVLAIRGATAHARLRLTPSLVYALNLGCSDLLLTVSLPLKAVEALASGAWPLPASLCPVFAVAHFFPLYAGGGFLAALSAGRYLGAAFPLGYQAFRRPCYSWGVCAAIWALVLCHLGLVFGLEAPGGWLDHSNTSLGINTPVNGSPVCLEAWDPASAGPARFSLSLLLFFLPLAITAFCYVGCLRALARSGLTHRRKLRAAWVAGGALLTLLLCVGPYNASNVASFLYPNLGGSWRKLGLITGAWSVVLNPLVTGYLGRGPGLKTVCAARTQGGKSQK

SMILES	EC50 (human GPR40) [nM]	EC50 (Human GPR120 short form) [nM]
Cc1ccc(C2=C(COc3ccc(CCC(=O)O)c(C(F)(F)F)c3)CCC2)c(F)c1 [Compound 283, 3-[4-[[2-(2-fluoro-4-methyl-phenyl)cyclopenten-1-yl]methoxy]-2-(trifluoromethyl)phenyl]Propanoic Acid]	355	236
O=C(O)CCc1ccc(OCC2=C(c3ccc(Cl)c(F)c3)CCC2)cc1C(F)(F)F [Compound 284, 3-[4-[[2-(4-chloro-3-fluoro-phenyl)cyclopenten-1-yl]methoxy]-2-(trifluoromethyl)phenyl]Propanoic Acid]	101	442
O=C(O)CCc1ccc(OCC2=C(c3ccc(Cl)cc3F)CCC2)cc1C(F)(F)F [Compound 285, 3-[4-[[2-(4-chloro-2-fluoro-phenyl)cyclopenten-1-yl]methoxy]-2-(trifluoromethyl)phenyl]Propanoic Acid]	108	328
Cc1cc(OCC2=C(c3ccc(Cl)cc3C)CCC2)c(F)cc1CCC(=O)O [Compound 286, 3-[4-[[2-(4-chloro-2-methyl-phenyl)cyclopenten-1-yl]methoxy]-5-fluoro-2-methyl-phenyl]Propanoic Acid]	245	2900
COc1ccc(C2=C(COc3ccc(CCC(=O)O)c(C(F)(F)F)c3)CCC2)c(C)c1 [Compound 287, 3-[4-[[2-(4-methoxy-2-methyl-phenyl)cyclopenten-1-yl]methoxy]-2-(trifluoromethyl)phenyl]Propanoic Acid]	153	> 5000
COc1ccc(C2=C(COc3ccc(CCC(=O)O)c(Cl)c3)CCC2)cc1 [Compound 288, 3-[2-chloro-4-[[2-(4-methoxyphenyl)cyclopenten-1-yl]methoxy]phenyl]Propanoic Acid]	1080	847
Cc1cc(OCC2=C(c3ccc(Cl)cc3)CCC2)c(F)cc1CCC(=O)O [Compound 289, 3-[4-[[2-(4-chlorophenyl)cyclopenten-1-yl]methoxy]-5-fluoro-2-methyl-phenyl]Propanoic Acid]	1010	219
CCc1ccc(C2=C(COc3cc(C)c(CCC(=O)O)cc3F)CCC2)cc1 [Compound 290, 3-[4-[[2-(4-ethylphenyl)cyclopenten-1-yl]methoxy]-5-fluoro-2-methyl-phenyl]Propanoic Acid]	> 5000	418
Cc1ccc(C2=C(COc3ccc(CCC(=O)O)c(C(F)(F)F)c3)CCC2)c(-c2ccccc2)c1 [Compound 291, 3-[4-[[2-(4-methyl-2-phenyl-phenyl)cyclopenten-1-yl]methoxy]-2-(trifluoromethyl)phenyl]Propanoic Acid]	1420	> 5000
Cc1ccc(C2=C(COc3ccc(CCC(=O)O)c(C(F)(F)F)c3)CCC2)cc1-c1ccccc1 [Compound 292, 3-[4-[[2-(4-methyl-3-phenyl-phenyl)cyclopenten-1-yl]methoxy]-2-(trifluoromethyl)phenyl]Propanoic Acid]	1720	> 5000
CCc1ccc(C2=C(COc3ccc(CCC(=O)O)c(Cl)c3)CCC2)cc1 [Compound 293, 3-[2-chloro-4-[[2-(4-ethylphenyl)cyclopenten-1-yl]methoxy]phenyl]Propanoic Acid]	4240	2180
CCc1ccc(C2=C(COc3ccc(CCC(=O)O)c(C(F)(F)F)c3)CCC2)cc1 [Compound 294, 3-[4-[[2-(4-ethylphenyl)cyclopenten-1-yl]methoxy]-2-(trifluoromethyl)phenyl]Propanoic Acid]	3510	> 5000
O=C(O)CCc1ccc(OCC2=C(c3ccccc3Cl)CCC2)cc1Cl [Compound 295, 3-[2-chloro-4-[[2-(2-chlorophenyl)cyclopenten-1-yl]methoxy]phenyl]Propanoic Acid]	234	1650
Cc1ccc(C2=C(COc3ccc(CCC(=O)O)c(Cl)c3)CCC2)cc1F [Compound 296, 3-[2-chloro-4-[[2-(3-fluoro-4-methyl-phenyl)cyclopenten-1-yl]methoxy]phenyl]Propanoic Acid]	1070	157
O=C(O)CCc1ccc(OCC2=C(c3cccc(F)c3)CCC2)cc1Cl [Compound 297, 3-[2-chloro-4-[[2-(3-fluorophenyl)cyclopenten-1-yl]methoxy]phenyl]Propanoic Acid]	588	422
Cc1cccc(C2=C(COc3ccc(CCC(=O)O)c(Cl)c3)CCC2)c1 [Compound 298, 3-[2-chloro-4-[[2-(m-tolyl)cyclopenten-1-yl]methoxy]phenyl]Propanoic Acid]	1590	1630

SMILES	EC50 (human GPR40) [nM]	EC50 (Human GPR120 short form) [nM]
Cc1cc(OCC2=C(c3ccc(Br)cc3)CCC2)c(F)cc1CCC(=O)O [Compound 299, 3-[4-[[2-(4-bromophenyl)cyclopenten-1-yl]methoxy]-5-fluoro-2-methyl-phenyl]Propanoic Acid]	661	251
O=C(O)CCc1ccc(OCC2=C(c3ccc(C(F)(F)F)cc3)CCC2)cc1C(F)(F)F [Compound 300, 3-[2-(trifluoromethyl)-4-[[2-[4-(trifluoromethyl)phenyl]cyclopenten-1-yl]methoxy]phenyl]Propanoic Acid]	197	1550
COc1ccc(C2=C(COc3ccc(CCC(=O)O)c(C(F)(F)F)c3)CCC2)cc1 [Compound 301, 3-[4-[[2-(4-methoxyphenyl)cyclopenten-1-yl]methoxy]-2-(trifluoromethyl)phenyl]Propanoic Acid]	448	1530
[2H]C([2H])([2H])c1ccc(C2=C(COc3ccc(CCC(=O)O)c(Cl)c3)CCC2)cc1 [Compound 302-D, 3-[2-chloro-4-[[2-[4-(trideuteriomethyl)phenyl]cyclopenten-1-yl]methoxy]phenyl]Propanoic Acid]	952	160
[2H]C([2H])([2H])c1ccc(C2=C(COc3cc(C)c(CCC(=O)O)cc3F)CCC2)cc1 [Compound 303-D, 3-[5-fluoro-2-methyl-4-[[2-[4-(trideuteriomethyl)phenyl]cyclopenten-1-yl]methoxy]phenyl]Propanoic Acid]	2370	124
Cc1cc(OCC2=C(c3ccc(F)cc3)CCC2)c(F)cc1CCC(=O)O [Compound 304, 3-[5-fluoro-4-[[2-(4-fluorophenyl)cyclopenten-1-yl]methoxy]-2-methyl-phenyl]Propanoic Acid]	1110	502
CC1CCC(COc2ccc(CCC(=O)O)c(C(F)(F)F)c2)=C1c1ccccc1 (stereo not shown) [Compound 306, 3-[4-[(3-methyl-2-phenyl-cyclopenten-1-yl)methoxy]-2-(trifluoromethyl)phenyl]Propanoic Acid]	347	1120
Cc1ccc(C2=C(COc3ccc(CCC(=O)O)c(C(F)(F)F)c3)CCC2)cc1 [Compound 307, 3-[4-[[2-(p-tolyl)cyclopenten-1-yl]methoxy]-2-(trifluoromethyl)phenyl]Propanoic Acid]	516	288
O=C(O)CCc1ccc(OCC2=C(c3ccc(OC(F)(F)F)cc3)CCC2)cc1C(F)(F)F [Compound 308, 3-[4-[[2-[4-(trifluoromethoxy)phenyl]cyclopenten-1-yl]methoxy]-2-(trifluoromethyl)phenyl]Propanoic Acid]	899	> 5000
Cc1ccc(C2=C(COc3ccc(CCC(=O)O)c(Cl)c3)CCC2)cc1 [Compound 310, 3-[2-chloro-4-[[2-(p-tolyl)cyclopenten-1-yl]methoxy]phenyl]Propanoic Acid]	1120	209
O=C(O)CCc1ccc(OCC2=C(c3ccc(OC(F)(F)F)cc3)CCC2)cc1Cl [Compound 311, 3-[2-chloro-4-[[2-[4-(trifluoromethoxy)phenyl]cyclopenten-1-yl]methoxy]phenyl]Propanoic Acid]	792	> 5000
Cc1cccc(C2=C(COc3ccc(CCC(=O)O)c(C(F)(F)F)c3)CCC2)c1 [Compound 312, 3-[4-[[2-(m-tolyl)cyclopenten-1-yl]methoxy]-2-(trifluoromethyl)phenyl]Propanoic Acid]	402	612
O=C(O)CCc1ccc(OCC2=C(c3ccccc3Cl)CCC2)cc1C(F)(F)F [Compound 313, 3-[4-[[2-(2-chlorophenyl)cyclopenten-1-yl]methoxy]-2-(trifluoromethyl)phenyl]Propanoic Acid]	191	855
Cc1cc(OCC2=C(Cc3ccccc3)CCC2)c(F)cc1CCC(=O)O [Compound 314, 3-[4-[(2-benzylcyclopenten-1-yl)methoxy]-5-fluoro-2-methyl-phenyl]Propanoic Acid]	461	765
Cc1cc(CCC(=O)O)ccc1OCC1=C(Cc2ccccc2)CCC1 [Compound 315, 3-[4-[(2-benzylcyclopenten-1-yl)methoxy]-3-methyl-phenyl]Propanoic Acid]	> 5000	185
CC1CCC(COc2ccc(CCC(=O)O)c(C(F)(F)F)c2)=C1c1ccc(Cl)cc1 (stereo not shown) [Compound 316, 3-[4-[[2-(4-chlorophenyl)-3-methyl-cyclopenten-1-yl]methoxy]-2-(trifluoromethyl)phenyl]Propanoic Acid]	164	2430
